EPA's ToxValDB 9.5
Where “and” joins values, the source holds several entries; their conditions need not be identical. Identical values can stand only once.

How the values were obtained:
Rattus norvegicus [1] = details: oral, gavage
Mus musculus [2] = details: oral
Rattus norvegicus [3] = details: Hershberger, oral, gavage
Rattus norvegicus [4] = details: oral, diet
Rattus norvegicus [5] = details: for LD50: gavage
Mus musculus [6] = details: oral; remark: listed apart in the source
Rattus norvegicus [7] = details: oral
Oryctolagus sp. = details: acute; dermal
[8] = developmental, duration: 16 days, F, Wistar, Developmental: 20% decrease in serum T4 levels in pups on PND 16/17 + Endocrine: 20-30% decreases in serum T4 levels in dams
[9] = reproduction developmental, duration: 56 days, M, Sprague-Dawley, Endocrine: Hypertrophy and hyperplasia of thyroid follicular cells in males
[10] = reproduction developmental, duration: 56 days, M, Sprague-Dawley, Renal: 31% increase in BUN in males
[11] = developmental, duration: 1 days, gavage, M/F, NMRI, Developmental: Altered spontaneous behavior and habituation in adults exposed as neonates
[12] = developmental, duration: 42 days, gavage, M/F, CD1, Developmental: Decrease in number of pups per litter with no change in pup to implantation site ratio
[13] = duration: 5 days, Sprague-Dawley, active + Antiandrogenic + anti-androgenic + PPS delayed by 5 days / single dose tested (liver wt?)
[14] = chronic, duration: 2 years, M/F, increased absolute and relative liver weight
[15] = subchronic, duration: 13 weeks, oral, diet, Fischer 344
[16] = subchronic, duration: 13 weeks, diet, M, B6C3F1
[17] = short-term, duration: 28 days, gavage, M, Sprague-Dawley, Clinical Observation: Spontaneous locomotion decrease, Respiratory rate decrease, Prone position Eyelid closure Staggering gait Incomplete …
[18] = subchronic, duration: 13 weeks, M/F, neurological dysfunction

O=S(=O)(O)C(F)(F)C(F)(F)C(F)(F)C(F)(F)C(F)(F)C(F)(F)F [Perfluorohexanesulfonic acid]
LOAEL (Rattus norvegicus [1]; [8]): 5 mg/kg-day | NOAEL (Rattus norvegicus [1]; [8]): 0.05 mg/kg-day | LOAEL (Rattus norvegicus [1]; developmental, duration: 16 days, F, Wistar, Developmental: 40% decrease in serum T4 levels in pups on PND 16 + Endocrine: 60% decreases in serum T4 levels in dams): 25 mg/kg-day | NOAEL (Rattus norvegicus [1]; reproduction developmental, duration: 56 days, F, Sprague-Dawley, Hematological: 6% increase in prothrombin time in males at ?0.3 mg/kg/day / decreases in hemoglobin (4%), hematocrit (3%), and RBC levels (…): 10 mg/kg-day | NOAEL (Rattus norvegicus [1]; reproduction developmental, duration: 56 days, M/F, Sprague-Dawley, Hepatic: Increased liver weight / centrilobular hepatocellular hypertrophy in males at ?3 mg/kg/day + Immunotoxicological: No histological …): 10 mg/kg-day | LOAEL (Rattus norvegicus [1]; [9]): 3 mg/kg-day | NOAEL (Rattus norvegicus [1]; [9]): 1 mg/kg-day | LOAEL (Rattus norvegicus [1]; reproduction developmental, duration: 56 days, M, Sprague-Dawley, Hematological: 6% increase in prothrombin time in males at ?0.3 mg/kg/day / decreases in hemoglobin (4%), hematocrit (3%), and RBC levels (…): 0.3 mg/kg-day | LOAEL (Rattus norvegicus [1]; [10]): 10 mg/kg-day | NOAEL (Rattus norvegicus [1]; [10]): 3 mg/kg-day | NOAEL (Rattus norvegicus [1]; short-term, duration: 16 days, F, Wistar): 45 mg/kg-day and 25 mg/kg-day | LOAEL (Mus musculus [2]; [11]): 9.2 mg/kg-day | NOAEL (Mus musculus [2]; [11]): 6.1 mg/kg-day | NOAEL (Mus musculus [2]; developmental, duration: 42 days, gavage, M/F, CD1): 3 mg/kg-day | LOAEL (Mus musculus [2]; [12]): 1 mg/kg-day | NOAEL (Mus musculus [2]; [12]): 0.3 mg/kg-day | NOAEL (Mus musculus [2]; developmental, duration: 42 days, gavage, M/F, CD1, Hepatic: Single cell necrosis and microvascular fatty changes at 3 mg/kg/day / centrilobular hepatocellular hypertrophy at ?0.3 mg/kg/day …): 1 mg/kg-day | LOAEL (Mus musculus [2]; reproduction developmental, duration: 42 days, gavage, M/F, CD1, Hepatic: Single cell necrosis and microvascular fatty changes at 3 mg/kg/day / centrilobular hepatocellular hypertrophy at ?0.3 mg/kg/day …): 3 mg/kg-day | NOAEL (Mus musculus [2]; short-term, duration: 7 days, gavage, M, Hepatic: Hepatocellular hypertrophy, steatosis, and increased hepatic triglyceride levels): 10 mg/kg-day | NOAEL (Mus musculus [2]; subchronic, duration: 6 weeks, diet, M, Hepatic: Decreased plasma triglyceride, cholesterol, non-HDL cholesterol, and HDL cholesterol levels / increased hepatic triglyceride …): 6 mg/kg-day

ClC(Cl)=C(c1ccc(Cl)cc1)c1ccc(Cl)cc1 [p,p'-DDE]
LOAEL (Mus musculus [2]; developmental, duration: 14 days, gavage, M, NMRI, developmental): 0.5 mg/kg-day | LOEL (Rattus norvegicus [3]; [13]): 100 mg/kg-day | NOEL (Rattus norvegicus [3]; [13]): 10 mg/kg-day | LOEL (Rattus norvegicus [3]; duration: 7 days, Fischer 344, active + Antiandrogenic + anti-androgenic + PPS delayed by 5 days / single dose tested (liver wt?)): 100 mg/kg-day and 200 mg/kg-day | LOEL (Rattus norvegicus [3]; duration: 7 days, Long-Evans, active + Antiandrogenic + anti-androgenic + PPS delayed by 5 days / single dose tested (liver wt?)): 100 mg/kg-day | LOEL (Rattus norvegicus [3]; duration: 7 days, Sprague-Dawley, active + Antiandrogenic + anti-androgenic + PPS delayed by 5 days / single dose tested (liver wt?)): 100 mg/kg-day and 200 mg/kg-day | LOEL (Rattus norvegicus [3]; duration: 10 days, Sprague-Dawley, active + Negative + Antiandrogenic + anti-androgenic + PPS delayed by 5 days / single dose tested (liver wt?)): 100 mg/kg-day | NOEL (Rattus norvegicus [3]; duration: 10 days, Wistar, active + Antiandrogenic + anti-androgenic + PPS delayed by 5 days / single dose tested (liver wt?)): 16 mg/kg-day and 30 mg/kg-day | NOEL (Rattus norvegicus [3]; duration: 10 days, wistar, active + Antiandrogenic + anti-androgenic + PPS delayed by 5 days / single dose tested (liver wt?)): 10 mg/kg-day and 16 mg/kg-day and 30 mg/kg-day

c1cc[n+]2c(c1)-c1cccc[n+]1CC2 [Diquat]
LEL (Rattus norvegicus [4]; chronic, F, lens opacity and cataracts): 0.72 mg/kg-day | NOEL (Rattus norvegicus [4]; chronic, M/F, lens opacity and cataracts): 0.22 mg/kg-day | LEL (Rattus norvegicus [4]; chronic, M, lens opacity and cataracts): 0.58 mg/kg-day

COCCOCCOC [Diethylene glycol dimethyl ether]
LC50 (Rattus norvegicus [5]; acute, inhalation, nose only, Wistar): > 11000 mg/m3 | NOAEC (Rattus norvegicus [5]; repeat dose other, inhalation, M): 165 mg/m3 | NOAEL (Rattus norvegicus [5]; short-term, duration: 2 weeks, inhalation, nose only, F): 2030 mg/m3 | LOAEL (Rattus norvegicus [5]; short-term, duration: 2 weeks, inhalation, nose only, M): 604 mg/m3 | NOAEL (Mus musculus [6]; developmental, duration: 9 days, gavage, CD1): 62.8 mg/kg-day | NOAEL (Mus musculus [6]; reproduction developmental, duration: 9 days, gavage, F, CD1): 500 mg/kg-day | NOEL (Rattus norvegicus [7]; subchronic, gavage, M, Sprague-Dawley, Hematology: Hgb decrease, Hct decrease, MCV decrease + Necropsy: Spleen: Enlargement + Histopathology: Liver/Centrilobular- Hypertrophy of …): 2.5 mg/kg-day

CC1=C(C)S(=O)(=O)CCS1(=O)=O [Dimethipin]
LEL (Rattus norvegicus [4]; [14]): 10 mg/kg-day | NOEL (Rattus norvegicus [4]; [14]): 2 mg/kg-day

O=c1nc([O-])n(Cl)c(=O)n1Cl.[Na+] [Sodium dichloroisocyanurate]
LD50 (Oryctolagus sp.): > 2000 mg/kg

OCC(CO)(CBr)CBr [Pentaerythritol dibromide]
LD50 (Rattus norvegicus [5]; acute, oral, Crl:CD1): 1880 mg/kg | LD50 (Rattus norvegicus [5]; acute, oral, Sprague-Dawley): > 2000 mg/kg | LOAEL (Rattus norvegicus [5]; subchronic, duration: 3 months, oral, diet, Fischer 344): 240 mg/kg-day | LOAEL (Rattus norvegicus [5]; [15]): 240 mg/kg-day | NOAEL (Rattus norvegicus [5]; [15]): 120 mg/kg-day | LOAEL (Mus musculus [6]; chronic, duration: 104 weeks, diet, B6C3F1): 57.7 mg/kg-day | NOAEL (% diet) (Mus musculus [6]; reproduction developmental, diet, CD1, generation: F0): 0.1 | NOAEL (% diet) (Mus musculus [6]; reproduction developmental, diet, CD1, generation: F1): 0.1 | NOAEL (% diet) (Mus musculus [6]; reproduction developmental, diet, CD1, generation: F2): 0.1 | LOAEL (Mus musculus [6]; subchronic, duration: 13 weeks, diet, F, B6C3F1): 123 mg/kg-day | LOAEL (Mus musculus [6]; [16]): 246 mg/kg-day | NOAEL (Mus musculus [6]; [16]): 123 mg/kg-day | NOAEL (Rattus norvegicus [7]; [17]): 200 mg/kg-day | NOEL (Rattus norvegicus [7]; [17]): < 200 mg/kg-day | NOEL (Rattus norvegicus [7]; subchronic, duration: 13 weeks, diet, F, Fischer 344, Body Weight Changes: decrease + Urinalysis: Total protein increase, Urine volume increase, Specific gravity decrease + Blood Chemistry: TP …): 100 mg/kg-day | NOEL (Rattus norvegicus [7]; subchronic, duration: 13 weeks, diet, M/F, Fischer 344, Body Weight Changes: decrease + Urinalysis: Total protein increase, Urine volume increase, Specific gravity decrease + Blood Chemistry: TP …): < 120 mg/kg-day

CC(C)C(C(=O)OC(C#N)c1cccc(Oc2ccccc2)c1)c1ccc(Cl)cc1 (stereo not given) [Fenvalerate]
LEL (Rattus norvegicus [4]; [18]): 7.5 mg/kg-day | NOEL (Rattus norvegicus [4]; [18]): 2.5 mg/kg-day
